We go through eleven substances from patent US20100249061A1, “OLIGOSACCHARIDES, PREPARATION METHOD AND USE THEREOF, AND PHARMACEUTICAL COMPOSITIONS CONTAINING SAME” (Aventis Pharma S.A., priority 2004, published 2010).

One data set has as its target T1, heparanase (Homo sapiens, UniProt Q9Y251).
T1 sequence (Q9Y251 36-543): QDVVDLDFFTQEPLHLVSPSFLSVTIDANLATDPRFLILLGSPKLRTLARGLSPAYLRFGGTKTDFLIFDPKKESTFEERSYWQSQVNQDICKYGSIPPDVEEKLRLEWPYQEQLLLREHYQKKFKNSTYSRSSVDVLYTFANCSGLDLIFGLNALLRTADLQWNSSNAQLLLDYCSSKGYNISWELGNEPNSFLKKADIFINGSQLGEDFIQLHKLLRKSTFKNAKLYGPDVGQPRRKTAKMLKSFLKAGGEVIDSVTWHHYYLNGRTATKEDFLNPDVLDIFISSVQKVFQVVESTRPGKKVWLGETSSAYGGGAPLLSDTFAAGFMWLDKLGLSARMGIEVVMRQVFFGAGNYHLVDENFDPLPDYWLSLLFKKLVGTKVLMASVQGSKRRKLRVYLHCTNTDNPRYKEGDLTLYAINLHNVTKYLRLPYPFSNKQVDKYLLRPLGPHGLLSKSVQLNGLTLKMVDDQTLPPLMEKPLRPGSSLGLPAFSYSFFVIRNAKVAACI
The data set can be described thus: Heparanase inhibition in an enzymatic system (degradation of fondaparinux, residual anti-factor Xa activity). The class given is biochemical. The procedure: The concentration of fondaparinux is determined by virtue of its anti-factor Xa activity.
The heparanase is produced by Sanofi-Synthélabo (Labège, France). The reagents for assaying factor Xa are sold by Chromogénix (Montpellier, France).
Increasing concentrations of a compound according to the invention, heparanase inhibitor ([…]), are mixed with a fixed concentration of heparanase (for each batch, preliminary experiments make it possible to determine the enzymatic activity sufficient for degradation of 0.45 μg/ml of fondaparinux added). After 5 minutes at 37° C., the mixture is brought into contact with the fondaparinux and left at 37° C. for 1 hour. The reaction is stopped by heating at 95° C. for 5 minutes. The residual fondaparinux concentration is finally measured by adding factor Xa and its specific chromogenic substrate (Ref. S2222).
50 μl of sodium acetate buffer (0.2 M, pH 4.2) are mixed with 50 μl of fondaparinux (0.45 μg/ml) and 59 μl of a heparanase solution. The mixture is incubated for 1 hour at 37° C. and then for 5 minutes at 95° C. The pH thus goes from 4.2 to 7. 100 μl of the reaction mixture are then mixed with 50 μl of 50 mM Tris buffer containing 175 mM NaCl and 75 mM EDTA, […]. The anti-factor Xa activity of the fondaparinux is measured in the following way:
100 μl of the solution obtained in step a) are mixed with 100 μl of AT (0.5 μg/ml). The mixture is kept at 37° C. for 2 minutes and 100 μl of factor Xa (7 nkat/ml) are then added. The mixture is kept at 37° C. for 2 minutes and 100 μl of chromogenic substrate (Ref.: S2222) (1 mM) are then added. The mixture is kept at 37° C. for 2 minutes and then 100 μl of acetic acid (50%) are added. The optical density is read at 405 nm. A percentage inhibition is determined relative to the control without inhibitor. A percentage inhibition curve makes it possible to calculate an IC50.

The conditions of data set [1]: Petitou et al., J. Biol. Chem. (1988); sodium salt; cited from earlier work.
A short description of data set [2]: Stability in alkaline medium / physicochemical properties. Conditions: loses 3-O-sulphated terminal glucosamine, converted to pentasaccharide ΔIs-IIaid-GlcA as soon as pH exceeds 8. The procedure:
The depolymerization of the heparin takes place under the following conditions: 3 g of heparin from porcine mucous are dissolved in 30 ml of a solution of 0.2M NaCl, 0.02% BSA, 5 mM Na2HPO4, adjusted to pH 7. The depolymerization temperature is 16° C. 2 IU of heparinase 1 are initially introduced. After 7 days, an additional unit of heparinase 1 is added. After 15 days, the heparin depolymerization is considered to be finished. The reaction is monitored either by analytical […] on a TSK Super SW 2000 column (FIG. 1), or on a CTA-SAX column (FIG. 2a). The enzyme reaction may be considered to be sufficiently advanced when the proportion of oligosaccharides greater than octasaccharide in size is limited and when the two main sulphated hexasaccharides ΔIs-Isid-Isid and ΔIs-Isid-IIsglu in the mixture have been depolymerized to tetrasaccharides. When the enzyme reaction has finished, the solution is filtered through a 0.2 μm membrane and then injected, in 2 stages, onto a GC column filled with Biogel P10 (Bio Rad), in which a 0.2 N NaCl mobile phase circulates (FIG. 3). […] It is therefore very important to slightly acidify (pH between 5 and 6) the entire hexasaccharide fraction.

Data set [3] concerns the target T2, heparanase isolated from human peripheral blood leukocytes (PMN supernatant) (Homo sapiens, UniProt Q9Y251).
T2 construct: The supernatants containing the heparanase are then collected; from tissue; host or cells: human peripheral blood leukocytes (buffy coats) enriched in PMNs; cell supernatant
T2 sequence (Q9Y251 36-543): T1 sequence (Q9Y251 36-543)
The data set can be described thus: Heparanase degradation of 35-S-labelled heparan sulphate proteoglycan, gel permeation chromatography and scintillation counting. Type of data set: biochemical. The text has this:
Radiolabelled heparin/heparan sulphate (HS) is degraded with heparanases, producing low molecular weight HS fragments which can be measured by gel permeation chromatography (FPLC) and counting of the collected fractions by liquid scintillation.
A uterine fibroblast cell line was used to prepare heparan sulphate (proteoglycan) labelled with 35-S by metabolic labelling. It has been shown that this cell line produces relatively large amounts of various heparan sulphate proteoglycans (HS-PGs), such as syndecans and glypican (Drzeniek et al., Blood 93:2884-2897, 1999).
The labelling is carried out by incubating the cells, with a cell density of approximately 1×10^6 cells/ml, in the presence of 35-S-sulphate at 33 μCi/ml in the tissue culture medium for 24 hours. The supernatants are then collected and a protease inhibitor, PMSF (phenylmethylsulfonyl fluoride) (1 mmol/l), is added. […]
200 μl of 35-S-labelled heparan sulphate (proteoglycans) adjusted to approximately 2200 cpm/ml (cpm=counts per minute) are incubated at 37° C. for 18 hours with 1 μl of PMN supernatant containing the heparanase. 200 μl of the mixture obtained above are sampled on a TSK 4000 gel permeation chromatography column (FPLC), and the fractions are collected and analyzed by liquid scintillation counting.
The degradation was measured according to the following formula: […]
For example, the percentage degradation is calculated as follows: the sum of the counts (cpm) in fractions 20-33 of the sample after treatment with the heparanase, minus the background noise count (cpm) (fractions 20-33) of the control sample, is divided by the total counts (fractions 12-33) applied to the column. […] A correction for the sulphatase activity is not necessary since no sulphatase activity could be detected.
The following heparanase inhibitors: unfractionated heparin (UF-H) and Hexa Iso ATIII were assayed via the protocol described above at three different concentrations. […] The data are expressed as percentage inhibition of the heparanase activity. […]

The target of a further data set is ATIII (Homo sapiens, UniProt P01008). The data set can be described thus: Affinity for ATIII. Type of data set: binding.

Like-named read-outs stand apart in the source and are kept apart here.

Chain of ATIII (P01008 33-464, species assumed): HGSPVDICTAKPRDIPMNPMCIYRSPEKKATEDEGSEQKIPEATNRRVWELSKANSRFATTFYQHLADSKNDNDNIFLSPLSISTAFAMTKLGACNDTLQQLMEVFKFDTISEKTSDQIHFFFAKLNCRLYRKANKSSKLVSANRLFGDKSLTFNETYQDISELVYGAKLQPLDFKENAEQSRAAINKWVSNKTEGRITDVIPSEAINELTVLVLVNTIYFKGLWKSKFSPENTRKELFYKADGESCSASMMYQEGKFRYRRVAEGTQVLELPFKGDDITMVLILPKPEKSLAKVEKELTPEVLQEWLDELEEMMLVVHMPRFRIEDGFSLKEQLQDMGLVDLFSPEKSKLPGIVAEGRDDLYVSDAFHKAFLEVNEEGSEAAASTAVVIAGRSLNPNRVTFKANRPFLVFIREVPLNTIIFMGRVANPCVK

The % inhibition is the drop in the measured response relative to a control, in per cent. With ΔIs-IIa-IIs [(Ia)], on heparanase (Concentration 1.00E−4 M), the “% inhibition” value was determined as 53.8%.

With ΔIs-Is-Is-IIs [(Ie)], the “% inhibition” value at heparanase (Concentration 3.00E−5 M) amounted to 59.1%.

ΔIs-Is-Ia-IIs [(Id)]: at heparanase (Concentration 3.00E−5 M), the “% inhibition” value worked out at 53.9%.

Turning to ΔIs-Is-Is-IIa-IIs [(Ig)], at heparanase (Concentration 1.00E−4 M), the “% inhibition” value came out at 55.8%.

As to ΔIs-Ia-IIs [(Im)], the “% inhibition” value at heparanase (Concentration 3.00E−5 M) turned out to be 54.1%.

With ΔIs-Is-Is-Is-IIs [(Ij)], the “% inhibition” value on heparanase (Concentration 3.00E−5 M) is on record as 48.4%.

On to ΔIs-Is-Is-IIa-IIs [(If)], for which the “% inhibition” value at heparanase (Concentration 3.00E−6 M) is reported as 58.4%.

As for ΔIs-IIaid-IIsglu [Hexa Iso ATIII], the anti-thrombotic activity entry in data set [1] was “no anti-thrombotic activity”; in “Anti-thrombotic activity” it was “devoid of anti-thrombotic activity”. Also, the “stability in alkaline medium” value in data set [2] is reported as “extremely fragile in alkaline medium”. Moreover, the entries for the “heparanase-inhibiting activity (conclusion in words)” value in data set [3] and in data set [3] (listed as hexasaccharide Iso ATIII) were “strong heparanase-inhibiting activity” and “very good heparanase inhibitor”, respectively. Moreover, the “dose dependence of heparanase inhibition” value in data set [3] (three concentrations, FIG. 2 / FIG. 7) is on record as “dose-dependant inhibition”. The “% inhibition” value at heparanase (Concentration 3.00E−5 M) was 48.5%. The “affinity for ATIII” value on ATIII is reported as “no affinity for ATIII”.

Regarding ΔIs-Is-Is-Ia-IIs [(Ih)], the “% inhibition” value on heparanase (Concentration 3.00E−5 M) is 55.5%.

On to ΔIs-Is-IIa-IIs [(Ib)], for which the “% inhibition” value on heparanase (Concentration 1.00E−5 M) is recorded as 59.9%.

Consider ΔIs-Is-IIa-IIs [(Ic)], for which the “% inhibition” value on heparanase (Concentration 3.00E−6 M) amounted to 59.2%.
